Measurements reported in ChEMBL document CHEMBL1147611, “Anti-AIDS agents. Part 57: Actein, an anti-HIV principle from the rhizome of Cimicifuga racemosa (black cohosh), and the anti-HIV activity of related saponins” (Bioorg Med Chem Lett, 2004).
Converted amounts (≈) assume the structure as drawn.

test system: H9; test: Effective concentration required to suppress HIV replication in H9 lymphocytes was determined; assay type: functional, cell-based; details: Homo sapiens

C[C@@H]1CC[C@@]2(OC1)O[C@H]1C[C@H]3[C@@H]4CC[C@@H]5C[C@@H](O[C@@H]6O[C@@H](CO)[C@@H](O)[C@H](O)[C@@H]6O[C@@H]6O[C@H](C)[C@H](O)[C@@H](O)[C@@H]6O)CC[C@]5(C)[C@H]4CC[C@]3(C)[C@H]1[C@@H]2C and C[C@@H]1CC[C@@]2(OC1)O[C@H]1C[C@H]3[C@@H]4CC[C@@H]5C[C@@H](O[C@@H]6O[C@@H](CO)[C@H](O)[C@H](O)[C@@H]6O[C@@H]6O[C@@H](CO)[C@@H](O)[C@H](O)[C@@H]6O)CC[C@]5(C)[C@H]4CC[C@]3(C)[C@H]1[C@@H]2C cannot be ordered by EC50: < 0.25 µg/mL for the first, < 0.25 µg/mL for the second.

Work on CC(=O)O[C@@H]1C[C@@]23C[C@@]24CC[C@H](OC2OCC(O)C(O)C2O)C(C)(C)[C@@H]4CC[C@H]3[C@]2(C)C[C@@H]3O[C@]4(C[C@@H](C)[C@@H]3[C@@]12C)O[C@H](O)[C@@]1(C)O[C@@H]41 (some centres undefined) yielded an EC50 of 0.375 µg/mL (≈ 0.554 µM).

test system: H9; test: Effective concentration required to suppress HIV replication in H9 lymphocytes was determined; Moderate activity; assay type: functional, cell-based, Homo sapiens; details: not given

For C=CC(C)(O)CC/C=C(\CO)C(=O)O[C@H]1[C@@H](OC[C@@H]2O[C@@H](OC(=O)[C@]34CCC(C)(C)C[C@H]3C3=CC[C@@H]5[C@@]6(C)CC[C@H](O[C@@H]7O[C@@H](CO[C@@H]8OC[C@H](O)[C@H](O)[C@@H]8O[C@@H]8OC[C@@H](O)[C@H](O)[C@@H]8O)[C@@H](O)[C@H](O)[C@@H]7O)C(C)(C)[C@@H]6CC[C@@]5(C)[C@]3(C)C[C@H]4O)C(O[C@@H]3O[C@@H](C)[C@H](O[C@@H]4OC[C@@H](O)[C@H](O[C@@H]5OC[C@@H](O)[C@H](O)C5O)[C@@H]4O)[C@H](O)[C@H]3O)[C@@H](O)[C@@H]2O)O[C@@H](C)[C@H](O)[C@@H]1OC(=O)/C(=C/CCC(C)(O)C=C)CO (some centres undefined), the EC50 was “Moderate”.
In the case of C=CC(C)(O)CC/C=C(\CO)C(=O)O[C@H]1[C@H](O[C@@H]2[C@H](OC(=O)[C@]34CCC(C)(C)C[C@H]3C3=CC[C@@H]5[C@@]6(C)CC[C@H](O[C@H]7O[C@@H](CO[C@@H]8OC[C@H](O)[C@@H](O)[C@@H]8O[C@@H]8OC[C@@H](O)[C@H](O)[C@@H]8O)[C@@H](O)[C@H](O)[C@@H]7O)C(C)(C)[C@@H]6CC[C@@]5(C)[C@]3(C)CC4)O[C@@H](COC(=O)/C(=C/CC[C@](C)(C=C)O[C@@H]3OC[C@@H](O)[C@H](O)[C@@H]3OC(=O)/C(=C/CC[C@@](C)(O)C=C)CO)CO)[C@@H](O)[C@@H]2O)O[C@@H](C)[C@H](O[C@@H]2OC[C@@H](O)[C@H](O[C@@H]3OC[C@@H](O)[C@H](O)[C@@H]3O)[C@@H]2O)[C@@H]1O (some centres undefined), the EC50 is reported as “Moderate”.
For C=CC(C)(O)CC/C=C(\CO)C(=O)OC[C@@H]1O[C@@H](OC(=O)[C@]23CCC(C)(C)C[C@H]2C2=CC[C@@H]4[C@@]5(C)CC[C@H](O[C@@H]6O[C@@H](CO[C@@H]7OC[C@H](O)[C@H](O)[C@@H]7O[C@@H]7OC[C@@H](O)[C@H](O)[C@@H]7O)[C@@H](O)[C@H](O)[C@@H]6O)C(C)(C)[C@@H]5CC[C@@]4(C)[C@]2(C)CC3)C(O[C@@H]2O[C@@H](C)[C@H](O[C@@H]3OC[C@@H](O)[C@H](O[C@@H]4OC[C@@H](O)[C@H](O)C4O)[C@@H]3O)[C@H](O)[C@H]2O)[C@@H](O)[C@@H]1O (some centres undefined), the EC50 was “Moderate”.
For C=CC(C)(O)CC/C=C(\CO)C(=O)OC[C@@H]1O[C@@H](OC(=O)[C@]23CCC(C)(C)C[C@H]2C2=CC[C@@H]4[C@@]5(C)CC[C@H](O[C@@H]6O[C@@H](CO[C@@H]7OC[C@H](O)[C@H](O)[C@@H]7O[C@@H]7OC[C@@H](O)[C@H](O)[C@@H]7O)[C@@H](O)[C@H](O)[C@@H]6O)C(C)(C)[C@@H]5CC[C@@]4(C)[C@]2(C)C[C@H]3O)C(O[C@@H]2O[C@@H](C)[C@H](O[C@@H]3OC[C@@H](O)[C@H](O[C@@H]4OC[C@@H](O)[C@H](O)C4O)[C@@H]3O)[C@H](O)[C@H]2O)[C@@H](O)[C@@H]1O (some centres undefined), the EC50 was “Moderate”.

test system: not listed separately; test: Therapeutic index of compound was determined by the ratio of IC50 to that of EC50; assay type: cell-based; details: human, H9 cells; read-out: TI

First: C[C@@H]1C[C@]2(C[C@@H](C)[C@H]3[C@@H](C[C@@]4(C)C5=C(CC[C@]34C)[C@@]3(C)CC[C@H](O[C@@H]4O[C@@H](O[C@@H]6OC[C@H](O)[C@H](O)[C@@H]6O[C@@H]6O[C@@H](CO)[C@@H](O)[C@H](O)[C@@H]6O[C@@H]6O[C@@H](C)[C@H](O)[C@H](O)[C@H]6O)[C@@H](O)[C@H](O)[C@@H]4O)[C@@](C)(CO)[C@@H]3CC5)O2)OC1=O
Second: CC(=O)O[C@@H]1C[C@@]23C[C@@]24CC[C@H](OC2OCC(O)C(O)C2O)C(C)(C)[C@@H]4CC[C@H]3[C@]2(C)C[C@@H]3O[C@]4(C[C@@H](C)[C@@H]3[C@@]12C)O[C@H](O)[C@@]1(C)O[C@@H]41 (some centres undefined)
The selectivity ratio of the first is lower: 30.2 for the first, 144 for the second.

C[C@H]1[C@H]2[C@H](C[C@@]3(C)C4=CC[C@H]5C(C)(C)[C@@H](OC6OCC(O)C(O)C6O)CC[C@@]56C[C@@]46CC[C@]23C)O[C@@]2(O)[C@@H]1OC(C)(C)[C@H]2O (some centres undefined) and C[C@H]1[C@H]2[C@H](C[C@@]3(C)[C@@H]4CC[C@H]5C(C)(C)[C@@H](OC6OCC(O)C(O)C6O)CC[C@@]56C[C@@]46CC[C@]23C)O[C@@]2(O)[C@@H]1OC(C)(C)[C@H]2O (some centres undefined) are the same in selectivity ratio: 30.2 for the first, 30.2 for the second.

CC(=O)O[C@@H]1C[C@@]23C[C@@]24CC[C@H](OC2OCC(O)C(O)C2O)C(C)(C)[C@@H]4CC[C@H]3[C@]2(C)C[C@@H]3O[C@]4(C[C@@H](C)[C@@H]3[C@@]12C)OC[C@]1(C)O[C@H]41 (some centres undefined) and C[C@@H]1C[C@H]2O[C@@]3(O[C@@H]2C(C)(C)O)[C@H](O)[C@@]2(C)[C@@H]4CC[C@H]5C(C)(C)[C@@H](O[C@@H]6OC[C@@H](O)[C@H](O)[C@H]6O)CC[C@@]56C[C@@]46CC[C@]2(C)[C@@H]13 are the same in selectivity ratio: 30.2 for the first, 30.2 for the second.

In the case of CC(=O)OC1COC(O[C@H]2CC[C@]34C[C@]35CC[C@]3(C)[C@@H]([C@H](C)C[C@@H](OC(C)=O)[C@@H]6OC6(C)C)C(=O)[C@H](OC(C)=O)[C@@]3(C)[C@@H]5CC[C@H]4C2(C)C)C(OC(C)=O)C1OC(C)=O (some centres undefined), the selectivity ratio is reported as 30.2.
